Assay: xn = mol fraction of the nth substance listed
Details: 101 kPa, Liquid, Vibrating tube method

CC(=O)N1CCOCC1 [4-acetylmorpholine] + CCc1ccccc1
mass density [kg/m3]
Details | 293.15 K | 303.15 K | 313.15 K | 323.15 K | 333.15 K | 343.15 K
x2 = 0.0456 | 1102.4 | 1094.5 | 1085.9 | 1077.3 | 1068.9 | 1060.3
x2 = 0.1256 | 1082.6 | 1074.7 | 1066.2 | 1057.7 | 1049.2 | 1040.6
x2 = 0.1853 | 1068 | 1060 | 1051.5 | 1042.9 | 1034.3 | 1025.7
x2 = 0.2457 | 1053.2 | 1045.2 | 1036.6 | 1027.9 | 1019.4 | 1010.6
x2 = 0.2984 | 1040.5 | 1032.4 | 1023.7 | 1015 | 1006.3 | 997.5
x2 = 0.3486 | 1028.3 | 1020.1 | 1011.4 | 1002.6 | 993.8 | 985
x2 = 0.3899 | 1018.3 | 1010 | 1001.2 | 992.4 | 983.6 | 974.7
x2 = 0.4452 | 1004.8 | 996.5 | 987.7 | 978.9 | 969.9 | 960.9
x2 = 0.4843 | 995.3 | 986.9 | 978 | 969.2 | 960.2 | 951.2
x2 = 0.5433 | 980.8 | 972.3 | 963.5 | 954.6 | 945.6 | 936.6
x2 = 0.5894 | 969.5 | 961 | 952.1 | 943.2 | 934.2 | 925.2
x2 = 0.6555 | 953.2 | 944.7 | 935.8 | 926.9 | 917.8 | 908.8
x2 = 0.6983 | 942.6 | 934 | 925.1 | 916.2 | 907.2 | 898.3
x2 = 0.7452 | 931 | 922.4 | 913.5 | 904.6 | 895.6 | 886.6
x2 = 0.7984 | 917.7 | 909 | 900.2 | 891.2 | 882.3 | 873.4
x2 = 0.8422 | 906.7 | 898 | 889.3 | 880.4 | 871.4 | 862.4
x2 = 0.9328 | 884.2 | 875.5 | 866.7 | 857.8 | 848.7 | 839.7
x2 = 0.9784 | 872.8 | 864.1 | 855.2 | 846.2 | 837.1 | 828

CC(=O)N1CCOCC1 [4-acetylmorpholine] + Cc1cc(C)cc(C)c1
mass density [kg/m3]
Details | 293.15 K | 303.15 K | 313.15 K | 323.15 K | 333.15 K | 343.15 K
x2 = 0.0654 | 1094.6 | 1086.8 | 1077.7 | 1069.3 | 1060.8 | 1052.2
x2 = 0.1128 | 1081.2 | 1073.4 | 1063.8 | 1055.4 | 1046.9 | 1038.5
x2 = 0.1763 | 1063.5 | 1055.7 | 1045.7 | 1037.3 | 1028.9 | 1020.4
x2 = 0.2254 | 1050.2 | 1042.3 | 1032 | 1023.5 | 1015.1 | 1006.7
x2 = 0.2845 | 1034.5 | 1026.5 | 1015.8 | 1007.4 | 999 | 990.6
x2 = 0.3241 | 1024.2 | 1016.2 | 1005.2 | 996.8 | 988.4 | 980
x2 = 0.3837 | 1008.9 | 1000.9 | 989.5 | 981 | 972.7 | 964.3
x2 = 0.4266 | 998.1 | 990.1 | 978.3 | 969.9 | 961.6 | 953.2
x2 = 0.4978 | 980.4 | 972.3 | 960.2 | 951.9 | 943.5 | 935.2
x2 = 0.5436 | 969.2 | 961.1 | 948.8 | 940.4 | 932.1 | 923.8
x2 = 0.6116 | 952.8 | 944.8 | 932.1 | 923.9 | 915.6 | 907.3
x2 = 0.6984 | 932.5 | 924.4 | 911.4 | 903.1 | 894.9 | 886.8
x2 = 0.7452 | 921.6 | 913.6 | 900.4 | 892.2 | 884 | 875.9
x2 = 0.7944 | 910.4 | 902.3 | 888.9 | 880.8 | 872.7 | 864.6
x2 = 0.8541 | 897 | 889 | 875.4 | 867.2 | 859.1 | 851
x2 = 0.8932 | 888.3 | 880.2 | 866.5 | 858.4 | 850.3 | 842.2
x2 = 0.9423 | 877.5 | 869.5 | 855.6 | 847.5 | 839.4 | 831.3
x2 = 0.9833 | 868.7 | 860.6 | 846.5 | 838.5 | 830.4 | 822.3

CC(=O)N1CCOCC1 [4-acetylmorpholine] + Cc1ccccc1
mass density [kg/m3]
Details | 293.15 K | 303.15 K | 313.15 K | 323.15 K | 333.15 K | 343.15 K
x2 = 0.0498 | 1104.1 | 1096.4 | 1087.8 | 1079.4 | 1071.2 | 1063.2
x2 = 0.0975 | 1094.3 | 1086.5 | 1077.8 | 1069.6 | 1061.4 | 1053.3
x2 = 0.1453 | 1084 | 1076.5 | 1068.2 | 1059.9 | 1051.6 | 1043.4
x2 = 0.2109 | 1070.1 | 1062.5 | 1054 | 1045.6 | 1036.8 | 1029.2
x2 = 0.2873 | 1053.3 | 1045.4 | 1037.1 | 1028.6 | 1020.2 | 1012
x2 = 0.3276 | 1044.3 | 1036.5 | 1028.1 | 1019.5 | 1011 | 1002.5
x2 = 0.3865 | 1030.8 | 1022.8 | 1014.6 | 1005.8 | 997.2 | 988.6
x2 = 0.4536 | 1015.1 | 1007 | 998.7 | 989.8 | 981.2 | 972.2
x2 = 0.4953 | 1005.1 | 996.9 | 988.7 | 979.7 | 970.8 | 962.1
x2 = 0.5235 | 998.4 | 990 | 981.7 | 972.7 | 964.1 | 954.5
x2 = 0.5641 | 988.2 | 979.8 | 971.6 | 962.5 | 953.8 | 944.9
x2 = 0.6033 | 978.3 | 969.9 | 961.7 | 952.5 | 943.8 | 935
x2 = 0.6844 | 957.3 | 949 | 940.7 | 931.5 | 922.7 | 913.9
x2 = 0.7562 | 937.8 | 929.6 | 921.3 | 912.1 | 903.2 | 894.7
x2 = 0.8126 | 922.2 | 913.7 | 905.5 | 896.2 | 887.4 | 879.3
x2 = 0.8843 | 901.8 | 893.2 | 885 | 875.6 | 866.8 | 857.9
x2 = 0.9225 | 890.5 | 881.8 | 873.5 | 864.1 | 855.3 | 846.4
x2 = 0.9832 | 872.3 | 863.3 | 855.2 | 845.9 | 837.1 | 828.2
